Measured values reported in patent US20260078130A1, “NAMPT MODULATORS, PREPARATIONS, AND USES THEREOF” (SIRONAX LTD., priority 2022, published 2026).
Like-named read-outs stand apart in the source and are kept apart here.

What was measured:
[1] = biological target: T1, human enzyme NAMPT (full length) (Homo sapiens, UniProt P43490); assay: NMN fluorescence biochemical assay (stimulation of NMN synthesis by NAMPT); settings: for EC50: concentration giving half-maximal activation, read-out: Enzymatic EC50; for Enzymatic Emax: fold change of maximal activation compared to DMSO
T1 construct: human enzyme NAMPT (full length)
T1 sequence (P43490 whole entry): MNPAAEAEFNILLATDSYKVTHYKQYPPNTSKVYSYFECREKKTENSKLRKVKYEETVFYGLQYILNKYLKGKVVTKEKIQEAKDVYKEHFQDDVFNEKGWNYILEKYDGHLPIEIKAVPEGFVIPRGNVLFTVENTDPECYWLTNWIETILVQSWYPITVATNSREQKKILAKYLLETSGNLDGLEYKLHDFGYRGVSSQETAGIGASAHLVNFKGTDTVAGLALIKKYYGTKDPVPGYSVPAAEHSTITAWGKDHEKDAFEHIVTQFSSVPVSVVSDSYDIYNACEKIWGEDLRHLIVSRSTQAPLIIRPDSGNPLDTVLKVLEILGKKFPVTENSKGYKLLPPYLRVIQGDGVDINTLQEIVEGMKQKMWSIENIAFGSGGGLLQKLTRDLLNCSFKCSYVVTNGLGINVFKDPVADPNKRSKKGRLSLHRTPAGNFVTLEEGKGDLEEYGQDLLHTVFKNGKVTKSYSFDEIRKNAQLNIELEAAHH
Outline: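 Full-length human NAMPT (100 nM) was preincubated 15 min at 37 °C with compound in 50 mM Tris-HCl pH 7.5, 10 mM MgCl2, 2 mM DTT, then reacted 1 h at 37 °C with 50 μM NAM, 100 μM PRPP, 4 mM ATP (stated solution concentrations). NMN was derivatised with acetophenone/KOH then formic acid and read at Ex/Em 382/445 nm; EC50 and Emax (fold over DMSO) reported.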

[2] = tested on: endogenous NAMPT in U2OS cells; assay: Cellular NAD+ modulation assay (NAD/NADH-Glo, U2OS cells); format: cell-based; settings: Homo sapiens; for maximal fold induction: read-out: Cellular Emax
Outline: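 Endogenous NAMPT stimulation in U2OS cells treated with compound dilution series for 24 h at 37 °C. Cells lysed with DTAB base, acid-treated 15 min at 60 °C, neutralized, NAD+ read by NAD/NADH-Glo luminescence after 40 min at room temperature. EC50 and Emax (fold over DMSO) derived.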

[3] = NMN synthesis by purified human NAMPT (100 nM)
[4] = 24 hours incubation with compound
[5] = NMN fluorescence assay, purified human NAMPT 100 nM
[6] = 24 hours incubation, cellular NAD+

| SMILES | EC50 [1, 3] [nM] | Enzymatic Emax [1] | EC50 [2, 4] [nM] | EC50 [1, 5] [nM] | EC50 [2, 6] [nM] | maximal fold induction [2, 4] | maximal fold induction [2, 6] |
| --- | --- | --- | --- | --- | --- | --- | --- |
| O=C1c2ccccc2C(Cc2ncccc2Br)N1Cc1ccc2[nH]c(=O)oc2c1F (stereo not drawn) [Compound 224, 6-((1-((3-bromopyridin-2-yl)methyl)-3-oxoisoindolin-2-yl)methyl)-7-fluorobenzo[d]oxazol-2(3H)-one] | < 500 | A (A>3) | 500 to 5000 |  |  | > 1.5 |  |
| O=C1c2ccccc2C(Cc2ncccc2C(F)F)N1Cc1ccc2[nH]c(=O)oc2c1 (stereo not drawn) [Compound 191, 6-((1-((3-(difluoromethyl)pyridin-2-yl)methyl)-3-oxoisoindolin-2-yl)methyl)benzo[d]oxazol-2(3H)-one] | 500 to 5000 | A (A>3) | 500 to 5000 |  |  | > 1.5 |  |
| Cn1nc(C(F)F)c(Cl)c1CC1c2ccccc2C(=O)N1Cc1ccc2[nH]nnc2c1 (stereo not drawn) [Compound 361, 2-((1H-benzo[d][1,2,3]triazol-5-yl)methyl)-3-((4-chloro-3-(difluoromethyl)-1-methyl-1H-pyrazol-5-yl)methyl)isoindolin-1-one] |  | B (3≥B>2) |  | < 500 | < 500 |  | > 1.5 |
| Cc1ccnc(C#N)c1CC1c2ccccc2C(=O)N1Cc1ccc2[nH]nnc2c1 (stereo not drawn) [Compound 284, 3-((2-((1H-benzo[d][1,2,3]triazol-5-yl)methyl)-3-oxoisoindolin-1-yl)methyl)-4-methylpicolinonitrile] | < 500 | A (A>3) | < 500 |  |  | 1.2 to 1.5 |  |
| O=C1c2ccc(C3CC3)cc2C(Cc2ncccc2Br)N1Cc1ccc2[nH]c(=O)oc2c1 (stereo not drawn) [Compound 209, 6-((3-((3-bromopyridin-2-yl)methyl)-5-cyclopropyl-1-oxoisoindolin-2-yl)methyl)benzo[d]oxazol-2(3H)-one] | < 500 | A (A>3) | < 500 |  |  | > 1.5 |  |
| N#Cc1nccc(Cl)c1CC1c2ccccc2C(=O)N1Cc1ccc2[nH]c(=O)oc2c1 (stereo not drawn) [Compound 212, 4-chloro-3-((3-oxo-2-((2-oxo-2,3-dihydrobenzo[d]oxazol-6-yl)methyl)isoindolin-1-yl)methyl)picolinonitrile] | < 500 | A (A>3) | < 500 |  |  | > 1.5 |  |
| COc1ccccc1CC1c2ccccc2C(=O)N1Cc1ccc2[nH]c(=O)oc2c1 (stereo not drawn) [Compound 142, 6-((1-(2-methoxybenzyl)-3-oxoisoindolin-2-yl)methyl)benzo[d]oxazol-2(3H)-one] | < 500 | B (3≥B>2) | 500 to 5000 |  |  | > 1.5 |  |
| NC(=O)c1ccc2c(c1)C(=O)N(Cc1ccc(O)cc1)C2=O [Compound 38, 2-(4-hydroxybenzyl)-1,3-dioxoisoindoline-5-carboxamide] | ≥ 5000 | A (A>3) | 5000 to 50000 |  |  | ≤ 1.2 |  |
| O=c1[nH]c2ccc(Cn3ccc4ccccc4c3=O)cc2o1 [Compound 4, 6-((1-oxoisoquinolin-2(1H)-yl)methyl)benzo[d]oxazol-2(3H)-one] | ≥ 5000 | B (3≥B>2) | 5000 to 50000 |  |  | 1.2 to 1.5 |  |
| N#Cc1ccc2c(c1)C(Cc1c(Cl)ccnc1C#N)N(Cc1ccc3[nH]c(=O)oc3c1)C2=O (stereo not drawn) [Compound 276, 3-((4-chloro-2-cyanopyridin-3-yl)methyl)-1-oxo-2-((2-oxo-2,3-dihydrobenzo[d]oxazol-6-yl)methyl)isoindoline-5-carbonitrile] | < 500 | A (A>3) | < 500 |  |  | > 1.5 |  |

Continued, in another order:

| EC50 [1, 3] [nM] | Enzymatic Emax [1] | EC50 [2, 4] [nM] | EC50 [1, 5] [nM] | EC50 [2, 6] [nM] | SMILES | maximal fold induction [2, 4] | maximal fold induction [2, 6] |
| --- | --- | --- | --- | --- | --- | --- | --- |
|  | B (3≥B>2) |  | < 500 | < 500 | Cn1c(CC2c3ccccc3C(=O)N2Cc2ccc3[nH]nnc3c2)c(Cl)ccc1=O (stereo not drawn) [Compound 381, 2-((1H-benzo[d][1,2,3]triazol-5-yl)methyl)-3-((3-chloro-1-methyl-6-oxo-1,6-dihydropyridin-2-yl)methyl)isoindolin-1-one] |  | > 1.5 |
|  | B (3≥B>2) |  | < 500 | 500 to 5000 | O=C1c2ccccc2C(Cc2nn(C3CNC3)cc2Cl)N1Cc1ccc2[nH]nnc2c1 (stereo not drawn) [Compound 413, 2-((1H-benzo[d][1,2,3]triazol-5-yl)methyl)-3-((1-(azetidin-3-yl)-4-chloro-1H-pyrazol-3-yl)methyl)isoindolin-1-one] |  | > 1.5 |
|  | A (A>3) |  | < 500 | 500 to 5000 | Cn1ncc(Cl)c1CC1c2cc(C3CCOCC3)ccc2C(=O)N1Cc1ccc2[nH]nnc2c1 (stereo not drawn) [Compound 398, 2-((1H-benzo[d][1,2,3]triazol-5-yl)methyl)-3-((4-chloro-1-methyl-1H-pyrazol-5-yl)methyl)-5-(tetrahydro-2H-pyran-4-yl)isoindolin-1-one] |  | > 1.5 |
|  | B (3≥B>2) |  | < 500 | < 500 | Cn1ncc(Cl)c1CC1c2ccccc2C(=O)N1Cc1cn[nH]c1 (stereo not drawn) [Compound 629, 2-((1H-pyrazol-4-yl)methyl)-3-((4-chloro-1-methyl-1H-pyrazol-5-yl)methyl)isoindolin-1-one] |  | 1.2 to 1.5 |
|  | A (A>3) |  | < 500 | < 500 | COCc1ccc2c(c1)C(Cc1c(Cl)cnn1C)N(Cc1ccc3[nH]nnc3c1)C2=O (stereo not drawn) [Compound 436, 2-((1H-benzo[d][1,2,3]triazol-5-yl)methyl)-3-((4-chloro-1-methyl-1H-pyrazol-5-yl)methyl)-5-(methoxymethyl)isoindolin-1-one] |  | > 1.5 |
|  | A (A>3) |  | 500 to 5000 | < 500 | Cn1ncc(Cl)c1CC1c2cc(F)ccc2S(=O)(=O)N1CC1CC2(CNC(=O)O2)C1 (stereo not drawn) [Compound 563, 2-((3-((4-chloro-1-methyl-1H-pyrazol-5-yl)methyl)-5-fluoro-1,1-dioxidobenzo[d]isothiazol-2(3H)-yl)methyl)-5-oxa-7-azaspiro[3.4]octan-6-one] |  | > 1.5 |
|  | B (3≥B>2) |  | 500 to 5000 | < 500 | Cn1nc(C#N)c(Cl)c1CC1c2ccccc2C(=O)N1CC1CC2(CNC(=O)O2)C1 (stereo not drawn) [Compound 495, 4-chloro-1-methyl-5-((3-oxo-2-((6-oxo-5-oxa-7-azaspiro[3.4]octan-2-yl)methyl)isoindolin-1-yl)methyl)-1H-pyrazole-3-carbonitrile] |  | > 1.5 |
|  | B (3≥B>2) |  | < 500 | < 500 | Cn1ncc(Cl)c1CC1c2scnc2C(=O)N1Cc1ccc(O)cc1 (stereo not drawn) [Compound 430, 6-((4-chloro-1-methyl-1H-pyrazol-5-yl)methyl)-5-(4-hydroxybenzyl)-5,6-dihydro-4H-pyrrolo[3,4-d]thiazol-4-one] |  | > 1.5 |
|  | C (2≥C) |  | ≥ 5000 | 5000 to 50000 | Cn1ncc(Cl)c1CC1c2ccccc2C(C)(C)N1CC1CC(C(N)=O)C1 (stereo not drawn) [Compound 607, 3-((3-((4-chloro-1-methyl-1H-pyrazol-5-yl)methyl)-1,1-dimethylisoindolin-2-yl)methyl)cyclobutane-1-carboxamide] |  | 1.2 to 1.5 |
|  | B (3≥B>2) |  | 500 to 5000 | < 500 | Cn1ncc(Cl)c1CC1c2cc(F)ccc2C(=O)N1CC1CC2(CNC(=O)O2)C1 (stereo not drawn) [Compound 486, 2-((3-((4-chloro-1-methyl-1H-pyrazol-5-yl)methyl)-5-fluoro-1-oxoisoindolin-2-yl)methyl)-5-oxa-7-azaspiro[3.4]octan-6-one] |  | > 1.5 |
|  | A (A>3) |  | < 500 | < 500 | Cn1ncc(Cl)c1CC1c2ccccc2C(=O)N1Cc1c[nH]c(=O)s1 (stereo not drawn) [Compound 592, 5-((1-((4-chloro-1-methyl-1H-pyrazol-5-yl)methyl)-3-oxoisoindolin-2-yl)methyl)thiazol-2(3H)-one] |  | > 1.5 |
|  | B (3≥B>2) |  | < 500 | < 500 | Cc1ccnc(Br)c1CC1c2ccccc2C(=O)N1C/C=C/c1c[nH]nn1 (stereo not drawn) [Compound 380, (E)-2-(3-(1H-1,2,3-triazol-4-yl)allyl)-3-((2-bromo-4-methylpyridin-3-yl)methyl) isoindolin-1-one] |  | > 1.5 |
|  | A (A>3) |  | < 500 | < 500 | Cn1ncc(Cl)c1CC1c2cc(Cl)cc(F)c2C(=O)N1CC1CC2(CNC(=O)O2)C1 (stereo not drawn) [Compound 510, 2-((6-chloro-1-((4-chloro-1-methyl-1H-pyrazol-5-yl)methyl)-4-fluoro-3-oxoisoindolin-2-yl)methyl)-5-oxa-7-azaspiro[3.4]octan-6-one] |  | > 1.5 |
|  | B (3≥B>2) |  | < 500 | < 500 | CC(C)(O)Cn1cc(Cl)c(CC2c3ccccc3C(=O)N2Cc2ccc3[nH]nnc3c2)n1 (stereo not drawn) [Compound 411, 2-((1H-benzo[d][1,2,3]triazol-5-yl)methyl)-3-((4-chloro-1-(2-hydroxy-2-methylpropyl)-1H-pyrazol-3-yl)methyl)isoindolin-1-one] |  | > 1.5 |
